From patent US20130045931A1 (priority 2010, published 2013)

Assays:
Gram-negative bacteria = settings: cited from earlier work
Gram-positive bacteria = settings: some Gram-positive bacteria; cited from earlier work
[1] = test system: Staphylococcus lentus (DSM 6672); experiment: Antibacterial growth inhibition (Lang et al. 2007)
[2] = test system: liver tumor cell line HepG2; experiment: CellTiter-Blue cell viability assay; format: cell-based, human
Description: (§1) To determine the proliferation and cytotoxicity in respect of the liver tumor cell line HepG2 and the intestinal tumor cell line HT29, the effect on the metabolic activity of the cells was studied by means of the CellTiter-Blue® cell viability assay as described by O'Brien et al. (2000 Investigation of the alamar blue (resazurin) fluorescent dye for the assessment of mammalian cell cytotoxicity. European Journal of Biochemistry 267: 5421-6).

[3] = test system: intestinal tumor cell line HT29; experiment: CellTiter-Blue cell viability assay; format: cell-based, human
Description: as §1

[4] = test system: PAXF1657L (pancreatic tumor); experiment: Antiproliferative activity, propidium iodide fluorescence assay (Dengler et al. 1995); format: cell-based, human
[5] = test system: Staphylococcus aureus (ATCC 33593, methicillin-resistant); experiment: Antibacterial test, clinically relevant strains (Sahly et al. 2003)
[6] = test system: Propionibacterium acnes (DSM 1897); experiment: Antibacterial activity against causative agent of acne vulgaris; format: cell-based
[7] = test system: Pseudomonas aeruginosa (ATCC 10145); experiment: Antibacterial test, clinically relevant strains (Sahly et al. 2003); settings: biofilm former
[8] = test system: MAXF401NL (breast cancer); experiment: Antiproliferative activity, propidium iodide fluorescence assay (Dengler et al. 1995); format: cell-based, human
[9] = test system: Xanthomonas campestris (DSM 2405); format: cell-based
[10] = test system: Bacillus subtilis (DSM 347); experiment: Antibacterial growth inhibition (Lang et al. 2007)
Phytophthora infestans = format: cell-based; settings: Phytophthora infestans (Isolate), 48 hours at 20° C. in the dark
[11] = test system: Staphylococcus epidermidis (Isolate, biofilm former); experiment: Antibacterial test, clinically relevant strains (Sahly et al. 2003)
LXF529L (lung tumor) = experiment: Antiproliferative activity, propidium iodide fluorescence assay (Dengler et al. 1995); format: cell-based, human
[12] = test system: Staphylococcus aureus (ATCC 12600); experiment: Antibacterial test, clinically relevant strains (Sahly et al. 2003)
GXF251L (gastric tumor) = experiment: Antiproliferative activity, propidium iodide fluorescence assay (Dengler et al. 1995); format: cell-based, human

Row | Molecule | activity against Gram-negative bacteria (Gram-negative bacteria) | activity against Gram-positive bacteria (Gram-positive bacteria) | IC50 [1] | IC50 [2] | IC50 [3] | IC50 [4] | IC50 [5] | IC50 [6] | IC50 [7] | IC50 [8] | IC50 [9] | IC50 [10] | IC50 (Phytophthora infestans) | IC50 [11] | IC50 (LXF529L (lung tumor)) | IC50 [12] | IC50 (GXF251L (gastric tumor))
1 | Cc1cc2cc(O)c3c(c2c(O[C@@H]2C[C@H](N(C)C)[C@@H](O)[C@@H](C)O2)c1[C@@H]1C[C@H](N(C)C)[C@@H](O)[C@H](C)O1)C(=O)c1cccc(O)c1C3=O [benzanthrin A] | not against Gram-negative bacteria | active against some Gram-positive bacteria |  |  |  |  |  |  |  |  |  |  |  |  |  |  | 
2 | mayamycin |  |  | 8000 nM | 200 nM | 300 nM | 150 nM | 1250 nM | 31200 nM | 2500 nM | 290 nM | 30000 nM | 8000 nM | 15200 nM | 310 nM | 160 nM | 2500 nM | 200 nM
3 | Cc1cc2cc(O)c3c(c2c(O[C@@H]2C[C@H](N(C)C)[C@H](O)[C@@H](C)O2)c1[C@@H]1C[C@H](N(C)C)[C@@H](O)[C@H](C)O1)C(=O)c1cccc(O)c1C3=O [benzanthrin B] | not against Gram-negative bacteria | active against some Gram-positive bacteria |  |  |  |  |  |  |  |  |  |  |  |  |  |  | 
